# Results: PMC8466373, “Plant-Derived and Dietary Hydroxybenzoic Acids—A Comprehensive Study of Structural, Anti-/Pro-Oxidant, Lipophilic, Antimicrobial, and Cytotoxic Activity in MDA-MB-231 and MCF-7 Cell Lines” (Nutrients, 2021)
# Where two headings read alike, the source gives them in different places. Marks after values point to notes of the source that are not given here.
# How the values were obtained:
# [1] = ABTS assay; assay type: biochemical; conditions: 50 μM, methanolic solutions, 7 min of reaction time
# Method: ABTS assay was conducted according to the procedure of Re et al.. […] The absorbance of the solutions was measured with a UV–Vis spectrophotometer at 734 nm against methanol (the blank). The ability to scavenge ABTS^•+ cation radicals was expressed as the %I of ABTS^•+ and calculated according to the aforementioned equation.
# [2] = FRAP assay (ferric-reducing antioxidant power); assay type: biochemical; parameters: key: (-): Negative values were obtained for these acids; conditions: concentration of 50 μM, methanolic solutions
# Method: FRAP assay was carried out as described in [42]. […] After 8 min of incubation at 23 °C, the absorbance at 595 nm was measured against the blank (containing 0.4 mL of methanol instead of the sample). Ferric-reducing antioxidant activity was expressed as Fe(II) ion equivalents (μM) using the calibration curve obtained for FeSO4 (the standard curve equation: y = 3.4303x − 0.1058; R^2 = 0.9984).
# [3] = test system: Salmonella enteritidis (NCTC 4776); experiment: MIC by serial dilution in agar medium; assay type: cell-based; conditions: Salmonella enterica; Salmonella enteritidis; read-out: MIC
# Method: (§1) The following bacterial strains were used in this study: Escherichia coli (PCM 2857), Pseudomonas aeruginosa (PCM 2720), Bacillus subtilis (PCM 2850), Staphylococcus aureus (PCM 2267), Salmonella enteritidis (NCTC 4776), and Candida albicans (PCM 2566-FY). The microbial strains were bought from the Polish Collection of Microorganisms (Wroclaw, Poland) or the American Type Culture Collection.
# (§2) The MIC (minimal inhibitory concentration) was determined by serial dilution of the tested compound in an agar medium, to which the appropriate inoculum of microorganisms was then added and incubated. Escherichia coli, Pseudomonas aeruginosa, Staphylococcus aureus, Bacillus subtilis, Salmonella enteritidis, and Candida albicans were grown overnight and then resuspended in physiological saline to an optical density at 600 nm (OD = 600) of 0.60, corresponding to 5.0 × 10^8 CFU/mL. Bacteria (0.1 mL of the reconstituted suspension) were seeded onto sterile Mueller–Hinton agar plates, to which previously suitable amounts of the tested compounds were added to reach the desired concentration. Tested chemicals were dissolved in DMSO solution. Negative controls were agar plates, to which DMSO was added, while positive controls were plates with gentamycin (in the case of bacteria) or flucanozole (in the case of fungi). The plates were incubated at 37 °C for 24 h. The lowest concentration without visible bacterial growth was determined as the MIC.
# [4] = test system: Bacillus subtilis (PCM 2850); experiment: MIC by serial dilution in agar medium; assay type: cell-based; conditions: read-out: MIC
# Method: as §1, with “Collection. Bacteria (0.1 mL of the reconstituted suspension) were seeded onto sterile Mueller–Hinton agar plates (Biomaxima), to which previously suitable amounts of the tested compounds were added to give the desired concentration.” for “Collection.”
# as §2
# [5] = test system: Candida albicans (PCM 2566-FY); experiment: MIC by serial dilution in agar medium; assay type: cell-based; conditions: read-out: MIC
# Method: as §1, with “Collection. Bacteria (0.1 mL of the reconstituted suspension) were seeded onto sterile Mueller–Hinton agar plates (Biomaxima), to which previously suitable amounts of the tested compounds were added to give the desired concentration.” for “Collection.”
# as §2
# [6] = test system: Escherichia coli (PCM 2857); experiment: MIC by serial dilution in agar medium; assay type: cell-based; conditions: read-out: MIC
# Method: as §1, with “Collection. Bacteria (0.1 mL of the reconstituted suspension) were seeded onto sterile Mueller–Hinton agar plates (Biomaxima), to which previously suitable amounts of the tested compounds were added to give the desired concentration.” for “Collection.”
# as §2
# [7] = test system: Pseudomonas aeruginosa (PCM 2720); experiment: MIC by serial dilution in agar medium; assay type: cell-based; conditions: read-out: MIC
# Method: as §1, with “Collection. Bacteria (0.1 mL of the reconstituted suspension) were seeded onto sterile Mueller–Hinton agar plates (Biomaxima), to which previously suitable amounts of the tested compounds were added to give the desired concentration.” for “Collection.”
# as §2
# [8] = test system: Staphylococcus aureus (PCM 2267); experiment: MIC by serial dilution in agar medium; assay type: cell-based; conditions: read-out: MIC
# Method: as §1, with “Collection. Bacteria (0.1 mL of the reconstituted suspension) were seeded onto sterile Mueller–Hinton agar plates (Biomaxima), to which previously suitable amounts of the tested compounds were added to give the desired concentration.” for “Collection.”
# as §2
# [9] = test system: E. coli, P. aeruginosa, S. aureus, B. subtilis, S. enteritidis, and C. albicans; experiment: MIC, stated for all tested strains together; assay type: cell-based; conditions: all of the tested strains
# Method: as §1, with “Collection. Bacteria (0.1 mL of the reconstituted suspension) were seeded onto sterile Mueller–Hinton agar plates (Biomaxima), to which previously suitable amounts of the tested compounds were added to give the desired concentration.” for “Collection.”
# as §2
# [10] = Cytotoxicity, neutral red (NR) assay; assay type: cell-based, human; conditions: human, 48 h treatment, neutral red assay
# Method: Briefly, MCF-7 cells were cultured in EMEM (Biological Industries, Israel) medium supplemented with 10% fetal calf serum (Gibco). MDA-MB-231 cells were cultured in Leibovitz‘s L15 (Biological Industries, Beit HaEmek, Israel) medium supplemented with 10% fetal calf serum (Gibco). The MCF-7 cells were incubated in a 5% CO2 atmosphere at 37 °C, whereas the MDA-231 cells were incubated in a 100% air atmosphere at 37 °C.
# Cytotoxicity evaluation was conducted to assess the impact of hydroxybenzoic acids on the proliferation of MCF-7 and MDA-MB-231 cells, which was measured via neutral red (NR) assay. In brief, cells were seeded in 96-well microplates (TPP, Switzerland) at a density of 2 × 10^4 cells/well in 100 μL of culture medium. At least three independent experiments in six replicate wells were conducted per concentration. Twenty-four hours after cell seeding, cells were treated with increasing concentrations of hydroxybenzoic acids (0.02–5 mM) for forty-eight hours. After treatment, cells were incubated for 3 h at 37 °C with 100 µL of neutral red solution (stock solution of NR) (Sigma-Aldrich), and then 5 mg/mL of PBS was diluted 1:100 in cell culture medium, incubated for 12 h at 37 °C, and centrifuged to remove any undissolved NR powder. […] After 15 min of gentle shaking, optical density was read at 540 nm with an Infinite M200 plate reader spectrophotometer (Tecan, Austria).
# [11] = Lipophilicity via RP-HPLC; assay type: physicochemical
# Method: The analyses were carried out on the following chromatographic columns: RP-18e Purospher STAR (C18), 150 mm × 4.0 mm, 5 µm, (Merck, Darmstadt, Germany); RP-8e Purospher STAR (C8), 150 mm × 4.6 mm, 5 µm, (Merck, Darmstadt, Germany); Zorbax Eclipse XDB-CN (CN), 150 mm × 4.6 mm, 5 µm, (Agilent Technologies, Santa Clara, CA, USA); Nucleosil Phenyl (PHE), 250 mm × 4.6 mm, 7 µm, (Supelco, Bellefonte, PA, USA); and Regis Rexchrom IAM.PC.DD.2 (IAM), 100 mm × 4.6 mm, 10 µm, (Regis Technologies Inc., Morton Grave, IL, USA). The experimental conditions and the calculations were as described in [46].
# [12] = CABTS = 7 mM, t = 6 min, ref 73; read-out: ABTS, IC50; cited from earlier work
# [13] = C = 0,001 mg/mL, λ = 593 nm, t = 30 min; cited from earlier work
# [14] = ref 102; cited from earlier work
# [15] = cited from earlier work
smiles,measurement,setting,value
"O=C(O)c1ccc(O)cc1O [2,4-DHB, 2,4-Dihydroxybenzoic acid]",Inhibition of ABTS•+ radicals (%I),[1],16.17%
same,FRAP,[2],(-) *
same,MIC,[3],2000 mg/L
same,MIC,[4],2000 mg/L
same,MIC,[5],2000 mg/L
same,MIC,[6],2000 mg/L
same,MIC,[7],2000 mg/L
same,MIC,[8],2000 mg/L
same,MIC,[9],2000 mg/L
same,IC50 at 48 h,"[10]; read-out: Cytotoxicity (mM) in Cell Line MCF-7, IC50",> 5 mM
same,IC50 at 48 h,"[10]; read-out: Cytotoxicity (mM) in Cell Line MDA-MB-231, IC50",4.77 mM
same,log kw,[11]; C8 column,1.81
same,ϕ0,[11]; C8 column,1.38
same,log kw,[11]; C18 column,2.66
same,ϕ0,[11]; C18 column,0.57
same,log kw,[11]; CN column,2.06
same,ϕ0,[11]; CN column,1.15
same,log kw,[11]; IAM column,1.14
same,ϕ0,[11]; IAM column,1.00
same,log kw,[11]; PHE column,1.39
same,ϕ0,[11]; PHE column,1.05
same,IC50,[12],0.169 mM
same,FRAP,[13],"≈ 0.012 (C = 0,001 mg/mL), λ = 593 nm, t = 30 min) [73] μM Fe^2+"
same,LogPexp.,[14],1.63 [102]
same,pKaexp.,[15]; at 25 °C,3.11
same,pKaexp.,[15]; ref 104,3.11
same,pKaexp.,[15]; ref 105,3.1
